Source: ChEMBL document CHEMBL1201862, “PubChem BioAssay data set” (2004)
Calls of active or inactive are those of the source.

Legend:
Cannabinoid receptor 2 [1] = biological target: T1, Cannabinoid receptor 2 (Homo sapiens, UniProt P34972); test: SAR analysis of agonists of the Cannabinoid Receptor 2 using an Image-Based Assay - Set 2. [Related pubchem assays (depositor defined):AID1961, AID1965]; type: functional
Cannabinoid receptor 2 [2] = biological target: T1, Cannabinoid receptor 2; test: SAR analysis of antagonists of the Cannabinoid Receptor 2 using an Image-Based Assay - Set 2. [Related pubchem assays (depositor defined):AID1961, AID1965]; type: functional
[3] = biological target: T2, G-protein coupled receptor 55 (Homo sapiens, UniProt Q9Y2T6); test: SAR analysis of selective Agonists of GPR55 using an Image-Based Assay. [Related pubchem assays (depositor defined):AID1961, AID1965]; type: functional
[4] = biological target: T2, G-protein coupled receptor 55; test: GPR55 agonists via beta-arrestin recruitment, primary screen, imaging, U2OS cells, beta-arrestin-GFP redistribution (AID 1961); type: functional
Cannabinoid receptor 1 = Cannabinoid receptor 1 (Homo sapiens, UniProt P21554); test: SAR analysis of antagonists of the Cannabinoid Receptor 1 using an Image-Based Assay. [Related pubchem assays (depositor defined):AID1961, AID1965]; type: functional
[5] = biological target: T3, Ubiquitin-conjugating enzyme E2 N (Homo sapiens, UniProt P61088); type: functional
T3 sequence (P61088 whole entry): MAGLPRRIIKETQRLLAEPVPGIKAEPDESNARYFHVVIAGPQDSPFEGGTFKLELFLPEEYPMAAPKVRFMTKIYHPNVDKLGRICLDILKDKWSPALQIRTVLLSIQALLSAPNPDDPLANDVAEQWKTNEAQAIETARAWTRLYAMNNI

[6] = biological target: T3, Ubiquitin-conjugating enzyme E2 N; type: functional; remark: listed apart in the source
Bcl-2-related protein A1 = biological target: T4, Bcl-2-related protein A1 (Mus musculus, UniProt Q07440); type: functional;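 note: confirmatory dose–response counterscreen on Bfl-1, used to check hits from a UBC13 polyubiquitin inhibitor campaign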
T4 sequence (Q07440 whole entry): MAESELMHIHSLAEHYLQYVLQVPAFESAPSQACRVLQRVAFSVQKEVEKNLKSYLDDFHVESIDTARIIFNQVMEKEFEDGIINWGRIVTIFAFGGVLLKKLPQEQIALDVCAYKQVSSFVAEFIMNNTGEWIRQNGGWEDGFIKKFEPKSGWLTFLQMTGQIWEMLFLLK

[7] = biological target: T5, DNA repair protein RAD52 homolog (Homo sapiens, UniProt P43351); type: functional, biochemical
T5 sequence (P43351 whole entry): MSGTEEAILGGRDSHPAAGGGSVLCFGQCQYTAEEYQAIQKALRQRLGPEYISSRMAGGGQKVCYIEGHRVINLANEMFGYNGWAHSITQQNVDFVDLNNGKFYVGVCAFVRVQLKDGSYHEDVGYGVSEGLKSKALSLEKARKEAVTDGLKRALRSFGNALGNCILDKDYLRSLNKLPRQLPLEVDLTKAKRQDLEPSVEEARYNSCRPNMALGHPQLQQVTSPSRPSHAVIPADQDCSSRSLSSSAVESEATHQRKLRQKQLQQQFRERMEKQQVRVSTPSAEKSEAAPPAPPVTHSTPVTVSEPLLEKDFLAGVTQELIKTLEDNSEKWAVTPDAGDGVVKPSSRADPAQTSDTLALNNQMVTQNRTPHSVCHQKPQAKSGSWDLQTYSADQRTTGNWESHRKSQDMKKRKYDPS

[8] = biological target: T6, Tyrosine-protein phosphatase non-receptor type 7 (Homo sapiens, UniProt P35236); test: redox-dependent HePTP inhibition, mechanism study, biochemical, fluorescence (AID 2068); type: functional
T6 sequence (P35236 whole entry): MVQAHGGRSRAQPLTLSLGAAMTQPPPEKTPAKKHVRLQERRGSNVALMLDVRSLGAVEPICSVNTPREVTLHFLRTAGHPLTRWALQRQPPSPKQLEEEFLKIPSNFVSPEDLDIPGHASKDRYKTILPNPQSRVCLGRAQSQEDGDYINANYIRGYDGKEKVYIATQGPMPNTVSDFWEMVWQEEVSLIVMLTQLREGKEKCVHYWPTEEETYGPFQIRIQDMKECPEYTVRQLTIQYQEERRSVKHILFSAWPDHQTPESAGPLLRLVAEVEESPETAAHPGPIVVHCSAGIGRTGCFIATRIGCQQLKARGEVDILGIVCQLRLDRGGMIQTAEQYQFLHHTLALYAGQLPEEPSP

cells [9] = type: functional, cell-based
Exodeoxyribonuclease V = Exodeoxyribonuclease V (Escherichia coli (strain K12), UniProt P04993+P07648+P08394); test: E. coli RecBCD inhibitors, dose response, counter-screen for AddAB inhibitor project, absorbance, V66 E. coli, mutant T4 phage (AID 492957); type: functional, cell-based, Escherichia coli str. K-12 substr. MG1655
[10] = HepG2 cell cytotoxicity, dose response, cytotoxicity control for Shn3 inhibitor project, CellTiter-Glo, cherry-picked (AID 624134); type: functional, cell-based
[11] = Shn3 3'UTR reporter inhibitors, dose response, cell-based, Clone20 osteoblasts, firefly luciferase, cherry-picked (AID 624132); type: functional;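 note: firefly luciferase luminescence from reporter carrying the Shn3 3'UTR in osteoblasts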
cells [12] = type: functional, cell-based; remark: listed apart in the source
[13] = control 3'UTR Renilla luciferase suppression, dose response, counter-screen for Shn3 inhibitor project, cell-based, Clone20-Shn3RL, cherry-picked (AID 624133); type: functional
[14] = biological target: Heat shock protein HSP 90-alpha (Homo sapiens, UniProt P07900); type: functional, organism-based
HEK293 = test: inhibitors of LMP1-driven NF-kB reporter, dose response, cell-based, HEK293, luciferase, cherry-pick (AID 588343); type: functional; conditions: Homo sapiens
[15] = Counterscreen for AddAB inhibitors: absorbance-based bacterial cell-based high throughput dose response assay for inhibitors of bacterial viability. [Related pubchem assays (depositor defined):AID435030, AID449728, AID449731, AID488942, AID488955, AID488956]; type: functional
[16] = biological target: 1-acylglycerol-3-phosphate O-acyltransferase ABHD5/Perilipin-5 (Homo sapiens, UniProt Q00G26+Q8WTS1); test: Luminescence-based biochemical high throughput dose response assay for inhibitors of the interaction of the lipase co-activator protein, abhydrolase domain containing 5 (ABHD5) with perilipin-5 (MLDP; PLIN5) (2K validation set). [Related pubchem assays (depositor defined):AID493035, AID493241]
Perilipin-1/ABHD5 = Perilipin-1/ABHD5 (Homo sapiens, UniProt O60240+Q8WTS1); test: Luminescence-based biochemical high throughput dose response assay for inhibitors of the interaction of the lipase co-activator protein, abhydrolase domain containing 5 (ABHD5) with perilipin-1 (PLIN1) (2K validation set). [Related pubchem assays (depositor defined):AID493027, AID493057]
Sequence of Perilipin-1/ABHD5 (Q8WTS1 whole entry, the tested form may be a part): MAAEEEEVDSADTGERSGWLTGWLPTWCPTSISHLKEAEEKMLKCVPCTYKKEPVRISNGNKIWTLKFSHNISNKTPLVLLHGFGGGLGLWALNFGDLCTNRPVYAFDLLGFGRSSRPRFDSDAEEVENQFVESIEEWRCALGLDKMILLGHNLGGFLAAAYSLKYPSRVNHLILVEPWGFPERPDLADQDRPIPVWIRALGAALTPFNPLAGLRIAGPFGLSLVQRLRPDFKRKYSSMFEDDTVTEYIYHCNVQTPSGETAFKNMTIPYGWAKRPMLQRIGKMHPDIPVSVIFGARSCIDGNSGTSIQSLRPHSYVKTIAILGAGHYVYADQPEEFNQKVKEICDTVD
Sequence of Perilipin-1/ABHD5 (O60240 whole entry, the tested form may be a part): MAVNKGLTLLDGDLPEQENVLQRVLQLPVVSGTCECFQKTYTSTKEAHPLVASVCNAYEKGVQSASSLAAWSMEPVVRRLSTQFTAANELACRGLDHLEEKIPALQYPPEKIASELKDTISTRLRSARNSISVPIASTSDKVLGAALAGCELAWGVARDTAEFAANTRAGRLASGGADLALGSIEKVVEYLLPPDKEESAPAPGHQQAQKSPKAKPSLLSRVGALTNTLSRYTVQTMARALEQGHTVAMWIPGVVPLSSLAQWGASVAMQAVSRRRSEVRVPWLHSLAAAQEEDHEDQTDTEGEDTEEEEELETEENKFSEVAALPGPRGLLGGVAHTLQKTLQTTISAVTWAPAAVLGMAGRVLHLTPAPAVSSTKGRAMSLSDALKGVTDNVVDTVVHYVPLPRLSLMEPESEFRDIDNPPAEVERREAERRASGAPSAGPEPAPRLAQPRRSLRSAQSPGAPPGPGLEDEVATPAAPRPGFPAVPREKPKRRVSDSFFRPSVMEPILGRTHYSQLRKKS

T2 sequence (Q9Y2T6 whole entry): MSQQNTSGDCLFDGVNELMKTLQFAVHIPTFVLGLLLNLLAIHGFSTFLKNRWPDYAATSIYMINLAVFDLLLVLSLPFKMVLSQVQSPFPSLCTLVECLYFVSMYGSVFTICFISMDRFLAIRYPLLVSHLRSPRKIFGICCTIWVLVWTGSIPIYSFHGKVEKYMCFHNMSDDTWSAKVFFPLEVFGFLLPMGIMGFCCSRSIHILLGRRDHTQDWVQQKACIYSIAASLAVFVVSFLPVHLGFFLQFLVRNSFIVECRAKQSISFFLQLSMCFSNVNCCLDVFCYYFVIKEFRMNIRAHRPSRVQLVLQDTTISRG
T1 sequence (P34972 whole entry): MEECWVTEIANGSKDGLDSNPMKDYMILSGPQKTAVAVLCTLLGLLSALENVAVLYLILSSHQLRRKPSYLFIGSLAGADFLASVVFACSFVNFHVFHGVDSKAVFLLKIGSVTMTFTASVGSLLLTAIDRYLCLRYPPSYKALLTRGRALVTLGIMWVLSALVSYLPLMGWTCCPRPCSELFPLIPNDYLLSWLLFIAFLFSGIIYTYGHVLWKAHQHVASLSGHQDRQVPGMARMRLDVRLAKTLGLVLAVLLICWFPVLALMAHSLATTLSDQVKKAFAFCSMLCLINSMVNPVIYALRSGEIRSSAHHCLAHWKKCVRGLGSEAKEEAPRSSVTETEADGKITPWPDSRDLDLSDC
Sequence of 1-acylglycerol-3-phosphate O-acyltransferase ABHD5/Perilipin-5 (Q00G26 whole entry, the tested form may be a part): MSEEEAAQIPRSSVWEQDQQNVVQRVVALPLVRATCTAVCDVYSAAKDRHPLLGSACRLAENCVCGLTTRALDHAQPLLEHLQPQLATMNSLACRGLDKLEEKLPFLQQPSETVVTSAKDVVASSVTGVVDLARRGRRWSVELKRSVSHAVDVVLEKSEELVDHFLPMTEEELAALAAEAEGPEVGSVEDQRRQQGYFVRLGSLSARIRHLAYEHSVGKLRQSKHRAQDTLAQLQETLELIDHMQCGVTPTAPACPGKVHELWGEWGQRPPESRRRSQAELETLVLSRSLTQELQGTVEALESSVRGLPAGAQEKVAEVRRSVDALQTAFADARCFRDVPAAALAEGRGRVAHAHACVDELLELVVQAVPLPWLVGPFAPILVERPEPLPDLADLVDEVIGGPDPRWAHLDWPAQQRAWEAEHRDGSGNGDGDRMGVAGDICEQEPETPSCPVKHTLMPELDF
Sequence of 1-acylglycerol-3-phosphate O-acyltransferase ABHD5/Perilipin-5 (Q8WTS1 whole entry, the tested form may be a part): as the sequence (Q8WTS1 whole entry, the tested form may be a part) above
Sequence of Exodeoxyribonuclease V (P04993 whole entry): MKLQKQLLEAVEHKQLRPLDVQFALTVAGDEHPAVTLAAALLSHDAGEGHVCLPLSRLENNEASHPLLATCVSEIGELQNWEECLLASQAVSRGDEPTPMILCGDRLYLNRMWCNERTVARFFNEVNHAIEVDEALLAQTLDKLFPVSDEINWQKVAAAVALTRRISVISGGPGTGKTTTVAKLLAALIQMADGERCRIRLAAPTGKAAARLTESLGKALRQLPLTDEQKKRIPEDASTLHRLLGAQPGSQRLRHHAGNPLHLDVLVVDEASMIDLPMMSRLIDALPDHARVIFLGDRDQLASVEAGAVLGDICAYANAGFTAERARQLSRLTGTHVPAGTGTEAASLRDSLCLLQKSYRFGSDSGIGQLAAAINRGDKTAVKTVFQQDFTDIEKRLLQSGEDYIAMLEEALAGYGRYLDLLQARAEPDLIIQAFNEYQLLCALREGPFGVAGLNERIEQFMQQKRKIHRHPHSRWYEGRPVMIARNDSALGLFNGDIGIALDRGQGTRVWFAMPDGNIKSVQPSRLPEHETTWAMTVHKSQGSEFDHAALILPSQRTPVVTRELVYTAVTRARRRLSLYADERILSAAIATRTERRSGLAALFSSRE
Sequence of Exodeoxyribonuclease V (P07648 whole entry): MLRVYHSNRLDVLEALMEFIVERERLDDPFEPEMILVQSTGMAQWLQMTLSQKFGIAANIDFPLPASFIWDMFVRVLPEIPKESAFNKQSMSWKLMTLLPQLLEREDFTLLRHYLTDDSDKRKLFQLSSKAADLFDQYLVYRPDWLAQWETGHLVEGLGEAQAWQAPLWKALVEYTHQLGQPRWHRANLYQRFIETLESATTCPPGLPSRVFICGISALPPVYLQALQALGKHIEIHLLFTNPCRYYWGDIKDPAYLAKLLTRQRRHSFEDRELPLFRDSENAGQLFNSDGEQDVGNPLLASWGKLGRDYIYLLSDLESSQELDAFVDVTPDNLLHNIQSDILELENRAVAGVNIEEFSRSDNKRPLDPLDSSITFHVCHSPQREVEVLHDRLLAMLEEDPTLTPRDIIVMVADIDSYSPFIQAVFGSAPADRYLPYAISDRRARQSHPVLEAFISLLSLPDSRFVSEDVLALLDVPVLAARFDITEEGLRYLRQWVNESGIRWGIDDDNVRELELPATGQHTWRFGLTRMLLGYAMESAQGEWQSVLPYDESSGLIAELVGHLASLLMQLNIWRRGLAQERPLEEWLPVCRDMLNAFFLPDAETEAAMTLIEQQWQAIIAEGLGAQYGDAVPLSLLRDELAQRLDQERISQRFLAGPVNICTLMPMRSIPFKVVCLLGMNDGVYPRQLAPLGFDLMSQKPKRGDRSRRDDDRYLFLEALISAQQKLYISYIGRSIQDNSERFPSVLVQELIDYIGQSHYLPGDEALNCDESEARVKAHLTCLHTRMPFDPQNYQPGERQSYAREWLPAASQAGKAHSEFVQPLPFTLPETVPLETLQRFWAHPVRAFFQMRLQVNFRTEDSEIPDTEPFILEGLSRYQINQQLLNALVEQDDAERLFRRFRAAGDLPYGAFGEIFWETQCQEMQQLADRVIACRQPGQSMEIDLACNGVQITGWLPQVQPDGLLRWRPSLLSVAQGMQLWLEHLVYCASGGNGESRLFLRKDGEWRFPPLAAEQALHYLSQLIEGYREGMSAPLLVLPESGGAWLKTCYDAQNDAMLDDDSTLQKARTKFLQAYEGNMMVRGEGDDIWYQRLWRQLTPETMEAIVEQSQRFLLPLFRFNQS
Sequence of Exodeoxyribonuclease V (P08394 whole entry): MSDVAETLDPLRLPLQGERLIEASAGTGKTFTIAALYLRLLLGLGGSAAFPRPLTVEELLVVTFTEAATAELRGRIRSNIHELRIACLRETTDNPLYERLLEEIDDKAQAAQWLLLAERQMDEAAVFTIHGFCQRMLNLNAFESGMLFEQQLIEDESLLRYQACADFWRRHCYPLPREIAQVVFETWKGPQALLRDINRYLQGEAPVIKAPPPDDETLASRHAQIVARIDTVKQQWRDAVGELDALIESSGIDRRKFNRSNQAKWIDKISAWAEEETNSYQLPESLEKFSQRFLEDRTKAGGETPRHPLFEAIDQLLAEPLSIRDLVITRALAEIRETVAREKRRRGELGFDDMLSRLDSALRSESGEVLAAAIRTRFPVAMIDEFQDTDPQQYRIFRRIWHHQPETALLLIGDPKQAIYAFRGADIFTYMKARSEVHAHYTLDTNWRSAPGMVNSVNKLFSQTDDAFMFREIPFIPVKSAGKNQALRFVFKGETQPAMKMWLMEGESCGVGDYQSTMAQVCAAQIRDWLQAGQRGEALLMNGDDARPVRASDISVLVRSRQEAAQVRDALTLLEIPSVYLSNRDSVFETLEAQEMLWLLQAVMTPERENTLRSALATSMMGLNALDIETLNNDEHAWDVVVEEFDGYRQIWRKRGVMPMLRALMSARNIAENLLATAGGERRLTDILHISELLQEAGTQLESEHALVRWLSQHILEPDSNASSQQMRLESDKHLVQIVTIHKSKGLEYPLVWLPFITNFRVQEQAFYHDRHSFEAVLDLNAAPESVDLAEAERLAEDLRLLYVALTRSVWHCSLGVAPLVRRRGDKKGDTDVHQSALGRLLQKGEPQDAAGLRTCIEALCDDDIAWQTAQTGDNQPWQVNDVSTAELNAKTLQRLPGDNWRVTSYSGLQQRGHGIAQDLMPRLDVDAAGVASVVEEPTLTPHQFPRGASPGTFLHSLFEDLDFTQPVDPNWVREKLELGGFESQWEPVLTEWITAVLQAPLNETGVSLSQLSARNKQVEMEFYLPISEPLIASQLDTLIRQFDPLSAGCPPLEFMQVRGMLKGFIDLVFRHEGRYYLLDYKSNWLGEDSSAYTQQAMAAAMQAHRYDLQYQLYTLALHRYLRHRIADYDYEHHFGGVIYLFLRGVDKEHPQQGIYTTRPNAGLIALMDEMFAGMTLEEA

O=C(CSc1nc2ccccc2s1)N1c2ccccc2Sc2ccc(C(F)(F)F)cc21
EC50 (Cannabinoid receptor 2 [1]): < 0.062 µM (active) | IC50 (Cannabinoid receptor 2 [2]): > 32 µM (inactive) | EC50 [3]: 1.17 µM (active) | EC50 [4]: 1 µM (active) | IC50 (Cannabinoid receptor 1): > 32 µM (inactive)

NC(=S)N=Nc1c(O)n(C2OC(=O)c3ccccc32)c2ccccc12 (centres undefined)
IC50 [5]: 2.38 µM (active) | IC50 [6]: 3.62 µM (active) | IC50 (Bcl-2-related protein A1): > 20 µM (inactive)

N[C@@H](CO)c1cn([C@@H](Cc2cc3ccccc3[nH]2)C(=O)N2CCNCC2)nn1
IC50 [5]: 10.9 µM (active) | IC50 [6]: 12.3 µM (active) | AC50 [7]: 3.52 µM (active) | IC50 (Bcl-2-related protein A1): > 20 µM (inactive)

O=C(NCc1ccccc1)Nc1ccc2nc(-c3ccco3)c(-c3ccco3)nc2c1
IC50 [8]: 1.54 µM (active)

CC(C)C(=O)NC(c1ccc(Cl)cc1Cl)c1ccc2cccnc2c1O (centres undefined)
EC50 (cells [9]): > 350 µM (not active) | IC50 (Exodeoxyribonuclease V): > 119 µM (inactive) | AC50 [10]: 1.11 µM (active) | AC50 [11]: 0.691 µM (active) | EC50 (cells [12]): 7.49 µM (active) | AC50 [13]: 1.6 µM (active) | AC50 [14]: 25.5 µM (active) | AC50 (HEK293): 4.52 µM (active) | IC50 [15]: > 119 µM (inactive)

O=C(/C=C/c1ccccc1)c1ccccc1 [CHALCONE]
IC50 [16]: 4.25 µM (active) | IC50 (Perilipin-1/ABHD5): 4.19 µM (active)
